The values below come from patent US6444683B2, “17-azolyl steroids useful as androgen synthesis inhibitors” (University of Maryland at Baltimore, priority 1997, dated 2002).

“Also recorded” adds a separate entry of the source. Read-outs that look alike come from different tables or passages of the source.

For data set [1] the following is noted: small group of men with advanced prostatic cancer; cited from earlier work.
In data set [2] the test system is LNCaP human prostatic cancer cell. As to the kind of experiment: Androgen-stimulated growth of LNCaP human prostatic cancer cells in vitro. The following applies: for Toxicity to LNCaP cells: concentration range 0.5-5.0 μM; for Antiandrogenic effects: inferred from inhibition of androgen-stimulated LNCaP growth.
Data set [3] deals with T1, human prostate 5α-reductase (Homo sapiens, UniProt P31213).
T1 construct: The enzymatic reactions were initiated by addition of human BPH microsomes; from tissue; host or cells: human benign prostatic hyperplasia (BPH) tissue, microsomal fraction
T1 sequence (P31213 1-254): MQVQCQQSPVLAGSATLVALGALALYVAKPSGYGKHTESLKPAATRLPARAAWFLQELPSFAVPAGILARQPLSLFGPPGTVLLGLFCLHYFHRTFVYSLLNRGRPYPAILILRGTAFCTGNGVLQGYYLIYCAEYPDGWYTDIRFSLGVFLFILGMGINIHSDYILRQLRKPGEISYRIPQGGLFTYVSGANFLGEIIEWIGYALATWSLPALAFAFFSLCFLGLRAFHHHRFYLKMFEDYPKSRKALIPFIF
The data set can be described thus: Inhibition of human prostate 5α-reductase in BPH microsomes (conversion of [7-3H]-testosterone to DHT). It is filed as biochemical. The procedure: […] The ethanol was evaporated to dryness under a gentle stream of air. […] The enzymatic reactions were initiated by addition of human BPH microsomes (about 180 μg of microsomal protein in 500 μl of phosphate buffer) in a total volume of 1.0 ml, and the incubations were performed for 10 min under oxygen in a shaking water bath at 37° C. The incubations were terminated by placing the sample tubes on ice and the addition of ether. Also, [^14C]-DHT (3000 dpm) and cold DHT (50 μg) were added to each tube as an internal standard and visualization marker, respectively. The steroids were extracted with ether and separated by TLC (chloroform:ether, 80:20) and visualized by exposure to iodine vapor. The extracts were analyzed for ^3H and ^14C using a liquid scintillation counter. The percentage conversion of [7-^3H]-testosterone to [^3H]-dihydrotestosterone was calculated and used to determine 5α-reductase activity.

A further data set concerns the target T2, Rat P45017α (Rattus norvegicus, UniProt P11715).
T2 sequence (P11715 1-507): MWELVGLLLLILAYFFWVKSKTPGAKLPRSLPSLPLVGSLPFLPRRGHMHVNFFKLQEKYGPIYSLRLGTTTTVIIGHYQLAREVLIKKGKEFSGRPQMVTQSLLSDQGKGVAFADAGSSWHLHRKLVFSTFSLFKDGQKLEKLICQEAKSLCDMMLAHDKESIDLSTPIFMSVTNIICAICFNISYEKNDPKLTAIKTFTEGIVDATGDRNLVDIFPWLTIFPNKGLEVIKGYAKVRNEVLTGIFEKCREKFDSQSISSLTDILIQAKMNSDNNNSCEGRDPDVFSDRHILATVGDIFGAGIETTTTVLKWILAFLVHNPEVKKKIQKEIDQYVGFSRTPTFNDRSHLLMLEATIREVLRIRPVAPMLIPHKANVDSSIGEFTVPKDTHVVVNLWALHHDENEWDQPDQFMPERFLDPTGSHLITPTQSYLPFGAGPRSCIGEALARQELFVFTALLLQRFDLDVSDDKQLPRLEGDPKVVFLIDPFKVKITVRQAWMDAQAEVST
The data set can be described thus: Inhibition of rat testicular microsomal P45017α (lyase activity). The format is biochemical. Here is the method:
(§1) The microsomes were stored at −70° C. until assayed. Just before use, the thawed microsomes were diluted with 0.1 M phosphate buffer (pH 7.4) to appropriate concentrations.
(§2) This assay measures only the lyase activity of the P45017α enzyme.
(§3) IC50 values for inhibitors were calculated from the linear regression line in the plot of logit of lyase activity versus log of inhibitor concentration. […] Each inhibitor was examined at three concentrations.

The target of a further data set is T3, Human P45017α (Homo sapiens, UniProt P05093).
T3 construct: Human testicular microsomes were prepared from human testes; from tissue; host or cells: human testes (untreated prostatic cancer patients undergoing orchidectomy), microsomal fraction
T3 sequence (P05093 1-508): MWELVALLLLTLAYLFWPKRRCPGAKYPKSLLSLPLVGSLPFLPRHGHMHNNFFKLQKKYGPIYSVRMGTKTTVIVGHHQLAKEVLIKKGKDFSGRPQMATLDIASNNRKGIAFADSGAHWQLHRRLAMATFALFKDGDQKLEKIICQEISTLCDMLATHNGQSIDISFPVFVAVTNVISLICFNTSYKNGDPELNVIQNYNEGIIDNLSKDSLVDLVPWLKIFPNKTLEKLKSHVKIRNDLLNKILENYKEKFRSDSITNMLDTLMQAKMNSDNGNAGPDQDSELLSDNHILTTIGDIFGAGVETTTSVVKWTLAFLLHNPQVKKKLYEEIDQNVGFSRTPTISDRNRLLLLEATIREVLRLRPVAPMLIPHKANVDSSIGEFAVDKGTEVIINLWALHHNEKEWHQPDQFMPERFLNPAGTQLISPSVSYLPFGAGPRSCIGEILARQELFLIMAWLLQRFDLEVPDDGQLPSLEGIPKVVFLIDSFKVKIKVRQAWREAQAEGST
The data set can be described thus: Inhibition of human testicular microsomal P45017α (lyase activity, release of C3H3COOH from [21-3H3]-17α-hydroxypregnenolone). The format is biochemical. The following applies: for Ki: Human P45017α Ki; for Inhibition of human P45017α, in words: human testicular microsomes; for inhibition at 0.15 µM: read-out: % Inhibition of human P45017α. Here is the method: as §1, §2, §3

Data set [4] in a line: Stability at room temperature (TLC evidence). The format is physicochemical. The procedure:
The method followed that described for Synthesis Example 14, but using 3β-acetoxy-17-(1H-tetrazol-1-yl)-16-formylandrosta-5,16-diene (Compound 23) (140 mg, 0.3415 mmol). Purification of the crude product by FCC (silica gel, pet. ether/EtOAc (3:1)) gave Compound 26 (45 mg, 34.5%); ^1H NMR (300 MHz, CDCl3): δ 1.08 (3H, s, 18-Me), 1.20 (3H, s, 19-Me), 2.04 (3H, s, 3β-OAc), 4.62 (1H, m, 3α-H), 5.42 (1H, d, J=4.6Hz, 6-H), 6.00 (1H, s, 16-H) and 8.93 (1H, s, 5′-H). […] (TLC evidence) and was used for the subsequent reaction without further characterization.

In data set [5] the test system is LNCaP human prostatic cancer cell. To be noted: cited from earlier work.
The next data set concerns serum DHT levels. To be noted: BPH patients; cited from earlier work.
Where [6] appears, read: Homo sapiens, LNCaP, read-out: Inhibition of DHT-induced growth of LNCaP cells.
Where [7] appears, read: Homo sapiens, LNCaP, read-out: Inhibition of testosterone-stimulated growth of LNCaP cells.

For `C[C@]12CCC(=O)C(O)=C1CC[C@@H]1[C@@H]2CC[C@]2(C)C(=O)CC[C@@H]12` [Compound 4-OHA, 4-hydroxyandrostene-3,17-dione], the “Patients with subjective responses” value in data set [1] is reported as 80%.
Regarding `C[C@]12CC[C@H](O)CC1=CC[C@@H]1[C@@H]2CC[C@]2(C)C(n3ccnc3)=CC[C@@H]12` [Compound 11, 3β-hydroxy-17-(1H-imidazol-1-yl)androsta-5,16-diene], in data set [2] (setting [6]), the inhibition (commonly how much of the control response was suppressed) at 2.5 µM stood at 100%. Moreover, the inhibition at 1 µM in data set [2] (setting [7]) turned out to be 100%. Further, in data set [2], the “Toxicity to LNCaP cells” value was “nor was toxic to the cells” and the Antiandrogenic effects result is “strong antiandrogenic effects”. Further, the IC50 (as a rule, the concentration at which inhibition is half-maximal) in data set [3] is around 400000 nM. Moreover, in data set [3] (human prostate enzyme), the “Inhibition of 5α-reductase, in words” value is given as “poor inhibitors; also recorded: neither compound inhibited 5α-reductase”. Also, the IC50 at Rat P45017α is 9 ± 2 nM. For the same compound, at Rat P45017α (from IC50 values, rat vs human testicular microsomes), the “Increase of potency towards the rat enzyme compared with human P45017α” value was “unchanged”. Besides, on Rat P45017α (rat testicular microsomes), the “Inhibition of rat testicular P45017α, in words” value is on record as “powerful inhibitors”. Moreover, on Human P45017α, the IC50 came out at 8 nM; the Ki (as a rule, a dissociation constant, usually derived from enzyme kinetics or from competition with a known ligand) was found to be 1.2 nM; the “Inhibition of human P45017α, in words” value is “potent inhibitors; also recorded: powerful inhibitors”; the inhibition at 0.15 µM was found to be 97%. At Human P45017α (Lineweaver-Burk analysis, progress curves), the “Nature of inhibition kinetics of P45017α” value was “slow-binding inhibitor”.
As to `C[C@]12CC[C@H](O)CC1=CC[C@@H]1[C@@H]2CC[C@]2(C)C(n3ccnn3)=CC[C@@H]12` [Compound 20, 3β-hydroxy-17-(1H-1,2,3-triazol-1-yl)androsta-5,16-diene], in data set [2] (setting [6]), the inhibition at 5 µM was determined as 100%. For the same compound, in data set [2] (setting [7]), the inhibition at 2.5 µM was found to be 100%. In addition, in data set [2], the “Toxicity to LNCaP cells” value is given as “nor was toxic to the cells” and the Antiandrogenic effects entry is reported as “strong antiandrogenic effects”. Also, in data set [3] (human BPH microsomes, mean ± SDM of at least two experiments, read-out: 5α-Reductase IC50), the IC50 is around 10000 nM. Half-maximal inhibition at Rat P45017α (IC50) was put at 10 ± 0.4 nM. In addition, at Human P45017α, the IC50 was 13 ± 1 nM; the Ki turned out to be 1.4 nM; the “Inhibition of human P45017α, in words” value is listed as “potent inhibitors; also recorded: powerful inhibitors”. In addition, the inhibition at 0.15 µM at Human P45017α (inhibitor 150 nM, substrate 17α-hydroxypregnenolone 10 μM, mean of two determinations) was found to be 94%.
With `CC(=O)O[C@H]1CC[C@@]2(C)C(=CC[C@@H]3[C@@H]2CC[C@]2(C)C(n4cnnn4)=CC[C@@H]32)C1` [Compound 26, 3β-acetoxy-17-(1H-tetrazol-1-yl)androsta-5,16-diene], in data set [4], the “Stability at room temp.” value is on record as “not particularly stable at room temp”.
For the compound `C[C@]12CCC(=O)C[C@@H]1CC[C@@H]1[C@@H]2CC[C@]2(C)[C@@H](O)CC[C@@H]12` [DHT, dihydrotestosterone], in data set [5] (30 pM DHT), the “Stimulation of proliferation of LNCaP cells compared to control” value is recorded as 5 fold.
As for `CC(C)(C)NC(=O)[C@H]1CC[C@H]2[C@@H]3CC[C@H]4NC(=O)C=C[C@]4(C)[C@H]3CC[C@]12C` [Finasteride, reference compound], the “Reduction of serum DHT levels” value with serum DHT levels was 65-80%. The same compound gave an IC50 in data set [3] of 33 ± 2 nM.
Take `C[C@]12CC[C@H]3[C@@H](CCC4=CC(=O)CC[C@@]43C)[C@@H]1CC[C@@H]2O` [testosterone]: the “Increase of growth of LNCaP cells compared to vehicle-treated cells” value in data set [5] (0.1 nM testosterone) is recorded as 6 fold.
